Experimental data taken from US12440496B2, “Natriuretic peptide receptor a agonists useful for the treatment of cardiometabolic diseases, kidney disease and diabetes” (Merck Sharp & Dohme LLC, priority 2019, dated 2025).

Target: T1, hNPRA (Homo sapiens, UniProt P16066)
T1 construct: expressed in transfected cells
T1 sequence (P16066 33-1061): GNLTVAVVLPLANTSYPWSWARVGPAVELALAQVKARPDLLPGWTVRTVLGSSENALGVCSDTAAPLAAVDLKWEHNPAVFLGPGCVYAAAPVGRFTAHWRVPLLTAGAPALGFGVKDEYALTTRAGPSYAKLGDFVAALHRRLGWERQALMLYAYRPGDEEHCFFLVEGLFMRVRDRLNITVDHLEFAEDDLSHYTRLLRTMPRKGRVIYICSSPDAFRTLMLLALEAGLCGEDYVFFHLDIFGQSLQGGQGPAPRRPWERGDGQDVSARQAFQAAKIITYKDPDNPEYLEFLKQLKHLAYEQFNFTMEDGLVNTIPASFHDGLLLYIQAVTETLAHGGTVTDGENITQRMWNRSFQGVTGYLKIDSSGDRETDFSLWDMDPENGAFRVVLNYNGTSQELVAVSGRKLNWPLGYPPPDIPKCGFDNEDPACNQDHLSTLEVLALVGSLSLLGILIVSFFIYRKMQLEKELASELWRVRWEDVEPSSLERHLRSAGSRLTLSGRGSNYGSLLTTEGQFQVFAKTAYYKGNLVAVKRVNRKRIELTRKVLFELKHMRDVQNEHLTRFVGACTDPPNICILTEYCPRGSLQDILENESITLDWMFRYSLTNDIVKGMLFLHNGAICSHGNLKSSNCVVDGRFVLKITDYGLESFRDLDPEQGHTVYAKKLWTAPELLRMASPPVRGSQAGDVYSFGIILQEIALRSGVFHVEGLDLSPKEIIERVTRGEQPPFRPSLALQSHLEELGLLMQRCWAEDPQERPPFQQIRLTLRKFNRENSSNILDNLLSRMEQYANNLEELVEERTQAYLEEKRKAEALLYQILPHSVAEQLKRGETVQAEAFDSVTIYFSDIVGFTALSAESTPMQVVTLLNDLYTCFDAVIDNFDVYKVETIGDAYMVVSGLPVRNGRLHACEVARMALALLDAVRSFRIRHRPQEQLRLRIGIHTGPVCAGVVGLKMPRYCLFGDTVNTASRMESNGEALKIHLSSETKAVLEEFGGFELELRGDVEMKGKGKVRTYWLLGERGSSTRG
Assay: NPRA Functional Cell Assay (cGMP HTRF, NPRA HEK JumpIn stable cells)
Type: cell-based
Settings: cGMP production, 1 hour at 37° C., 10-point dose response
Summary of the method: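 cGMP HTRF read-out after 1 hour compound treatment at 37° C. of human NPRA-expressing HEK JumpIn cells, 1500 cells/well, in buffer with phosphodiesterase inhibitors IBMX and RO20 (100 uM each). Signal converted to [cGMP] by calibration curve; EC50s fitted by 4-parameter logistic; 50 nM h-ANP as positive response.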

| SMILES | EC50 [nM] |
| --- | --- |
| CC(C)(C)[C@H]1CCc2nc3sc(C(=O)N[C@H](CCN4CC(O)C4)c4ccc(-c5ccc(=O)[nH]c5)cc4)cc3cc2C1 (racemic) [Example 48, rac-(6S)-6-tert-butyl-N-[rac-(1R)-3-(3-hydroxyazetidin-1-ium-1-yl)-1-[4-(6-oxo-1H-pyridin-3-yl)phenyl]propyl]-5,6,7,8-tetrahydrothieno[2,3-b]quinoline-2-carboxamide;formate] | 679 |
| CC(C)(C)[C@H]1CCc2nc3sc(C(=O)N[C@H](CCN4CCC(CO)CC4)c4ccccc4)cc3cc2C1 [Example 255, (6S)-6-tert-butyl-N-{(1R)-3-[4-(hydroxymethyl)piperidin-1-yl]-1-phenylpropyl}-5,6,7,8-tetrahydrothieno[2,3-b]quinoline-2-carboxamide] | 2930 |
| CC(C)(C)[C@H]1CCc2nc3sc(C(=O)N[C@H](CCN4CCC(O)CC4)c4ccc(N5CCC(O)CC5)nc4)nc3cc2C1 (racemic) [Example 189, rac-(7S)-7-tert-butyl-N-[rac-(1R)-3-(4-hydroxy-1-piperidyl)-1-[6-(4-hydroxy-1-piperidyl)-3-pyridyl]propyl]-5,6,7,8-tetrahydrothiazolo[5,4-b]quinoline-2-carboxamide] | 1380 |
| CC(C)(C)[C@H]1CCc2nc3sc(C(=O)N[C@H](CCN4CCCC5(CCNC5=O)C4)c4cccc(NS(C)(=O)=O)c4)cc3cc2C1 (mixture of isomers) [Example 19, ammonium; methylsulfonyl-[3-[rac-(1R)-3-(1-oxo-2,9-diazaspiro[4.5]decan-9-y1)-1-[[rac-(6S)-6-tert-butyl-5,6,7,8-tetrahydrothieno[2,3-b]quinoline-2-carbonyl]amino]propyl]phenyl]azanide] | 1580 |
| CC(C)(C)[C@H]1CCc2nc3sc(C(=O)N[C@H](CCN[C@H]4C[C@H](O)C4)c4ccccc4)cc3cc2C1 [Example 260, (6S)-6-tert-butyl-N-{(1R)-3-[(trans-3-hydroxycyclobutyl)amino]-1-phenylpropyl}-5,6,7,8-tetrahydrothieno[2,3-b]quinoline-2-carboxamide] | 2000 |
| CC(C)(C)[C@H]1CCc2nc3sc(C(=O)N[C@H](CCN4CCCCC4)c4cccc(NS(C)(=O)=O)c4)cc3cc2C1 (racemic) [Example 11, ammonium; methylsulfonyl-[3-[rac-(1R)-3-(1-piperidyl)-1-[rac-(6S)-6-tert-butyl-5,6,7,8-tetrahydrothieno[2,3-b]quinoline-2-carbonyl]amino]propyl]phenyl] azanide] | 718 |
| CC(C)(C)[C@H]1CCc2nc3sc(C(=O)N[C@H](CCN4CCCC(O)C4)c4cccc(NS(C)(=O)=O)c4)cc3cc2C1 (mixture of isomers) [Example 12, ammonium; methylsulfonyl-[3-[rac-(1R)-3-(3-hydroxy-1-piperidyl)-1-[[rac-(6S)-6-tert-butyl-5,6,7,8-tetrahydrothieno[2,3-b]quinoline-2-carbonyl]amino]propyl]phenyl] azanide] | 790 |
| CC(C)(C)[C@H]1CCc2nc3sc(C(=O)N[C@H](CCN4CCC(O)CC4)c4ccc(N5CCOC5=O)cc4)nc3cc2C1 (racemic) [Example 85] | 1020 |
| Cn1nnnc1-c1ccc([C@@H](CCN2CCC(O)CC2)NC(=O)c2nc3cc4c(nc3s2)CC[C@H](C(C)(C)C)C4)cc1 (racemic) [Example 177, rac-(7S)-7-tert-butyl-N-[rac-(1R)-3-(4-hydroxypiperidin-1-ium-1-yl)-1-[4-(1-methyltetrazol-5-yl)phenyl]propyl]-5,6,7,8-tetrahydrothiazolo[5,4-b]quinoline-2-carboxamide; 2,2,2-trifluoroacetate] | 1150 |
| CC(C)(C)[C@H]1CCc2nc3sc(C(=O)N[C@H](CCN4CCC4)c4cccc(NS(C)(=O)=O)c4)cc3cc2C1 (racemic) [Example 20, ammonium; methylsulfonyl-[3-[rac-(1R)-3-(azetidin-1-yl)-1-[[rac-(6S)-6-tert-butyl-5,6,7,8-tetrahydrothieno[2,3-b]quinoline-2-carbonyl]amino]propyl]phenyl]azanide] | 1650 |

Now those with a lower EC50, led by results:

| EC50 [nM] | SMILES |
| --- | --- |
| 645 | CN(CCC(=O)O)CC[C@@H](NC(=O)c1nc2cc3c(nc2s1)CC[C@H](C(C)(C)C)C3)c1cccc(C(=O)NC2CN(C)C2)c1 (racemic) [Example 111, 3-[methyl-[rac-(3R)-3-[3-[(1-methylazetidin-1-ium-3-yl)carbamoyl]phenyl]-3-[[rac-(7S)-7-tert-butyl-5,6,7,8-tetrahydrothiazolo[5,4-b]quinoline-2-carbonyl]amino]propyl]amino] propanoic acid; 2,2,2-trifluoroacetate] |
| 621 | CN1CC(NC(=O)c2cccc([C@@H](CCN3CC4C(C3)C4C(=O)O)NC(=O)c3nc4cc5c(nc4s3)CC[C@H](C(C)(C)C)C5)c2)C1 (mixture of isomers) [Example 108, 3-[rac-(3R)-3-[3-[(1-methylazetidin-1-ium-3-yl)carbamoyl]phenyl]-3-[[rac-(7S)-7-tert-butyl-5,6,7,8-tetrahydrothiazolo [5,4-b]quinoline-2-carbonyl]amino]propyl]-3-azabicyclo[3.1.0]hexane-6-carboxylic acid; 2,2,2-trifluoroacetate] |
| 408 | CC(C)(C)C1CCc2nc3sc(C(=O)NC(CCN4CC5C(CO)C5C4)c4ccc(-c5ccc(=O)[nH]c5)cc4)cc3cc2C1 (racemic) [Example 27, rac-(6S)-6-tert-butyl-N-[rac-(1R)-3-[6-(hydroxymethyl)-3-azoniabicyclo[3.1.0]hexan-3-yl]-1-[4-(6-oxo-1H-pyridin-3-yl)phenyl]propyl]-5,6,7,8-tetrahydrothieno[2,3-b]quinoline-2-carboxamide;formate] |
| 350 | CC(C)(C)[C@H]1CCc2nc3sc(C(=O)N[C@H](CCN4CCC(O)CC4)c4ccc(N5CCOC5=O)nc4)nc3cc2C1 (racemic) [Example 186, rac-(7S)-7-tert-butyl-N-[rac-(1R)-3-(4-hydroxy-1-piperidyl)-1-[6-(2-oxooxazolidin-3-yl)-3-pyridyl]propyl]-5,6,7,8-tetrahydrothiazolo[5,4-b]quinoline-2-carboxamide] |
| 348 | CN(C)CC[C@@H](NC(=O)c1nc2cc3c(nc2s1)CC[C@H](C(C)(C)C)C3)c1cccc(C(=O)NCCN)c1 (racemic) [Example 92, rac-(7S)-7-tert-butyl-N-[rac-(1R)-1-[3-(2-aminoethylcarbamoyl)phenyl]-3-(dimethyl-amino)propyl]-5,6,7,8-tetrahydrothiazolo[5,4-b] quinoline-2-carboxamide] |
| 224 | CN1CCC(NC(=O)c2cccc([C@@H](CCN3CCC(C(=O)O)CC3)NC(=O)c3nc4cc5c(nc4s3)CC[C@H](C(C)(C)C)C5)c2)C1 (mixture of isomers) [Example 121, 1-[rac-(3R)-3-[3-[(1-methylpyrrolidin-3-yl)carbamoyl]phenyl]-3-[[rac-(7S)-7-tert-butyl-5,6,7,8-tetrahydrothiazolo [5,4-b]quinoline-2-carbonyl]amino]propyl]piperidine-4-carboxylic acid] |
| 160 | CN1CC(NC(=O)c2cccc([C@@H](CCN3CCC(c4nnn[nH]4)CC3)NC(=O)c3nc4cc5c(nc4s3)CC[C@H](C(C)(C)C)C5)c2)C1 (racemic) [Example 103, rac-(7S)-7-tert-butyl-N-[rac-(1R)-1-[3-[(1-methylazetidin-1-ium-3-yl)carbamoyl]phenyl]-3-[4-(1H-tetrazol-5-yl)-1-piperidyl]propyl]-5,6,7,8-tetrahydrothiazolo[5,4-b] quinoline-2-carboxamide; 2,2,2-trifluoroacetate] |
| 158 | CN1CC(NC(=O)c2cccc([C@@H](CCN3CCC(CCO)CC3)NC(=O)c3nc4cc5c(nc4s3)CC[C@H](C(C)(C)C)C5)c2)C1 (racemic) [Example 102, rac-(7S)-7-tert-butyl-N-[rac-(1R)-3-[4-(2-hydroxyethyl)-1-piperidyl]-1-[3-[(1-methylazetidin-1-ium-3-yl)carbamoyl]phenyl]propyl]-5,6,7,8-tetrahydrothiazolo[5,4-b] quinoline-2-carboxamide; 2,2,2-trifluoroacetate] |
| 132 | CC(C)(C)[C@H]1CCc2nc3sc(C(=O)N[C@H](CCN4CCC(O)CC4)c4cccc(C(=O)N[C@@H]5CNC[C@H]5O)c4)nc3cc2C1 (racemic) [Example 135, rac-(7S)-7-tert-butyl-N-[rac-(1R)-3-(4-hydroxy-1-piperidyl)-1-[3-[[rac-(3R,4R)-4-hydroxypyrrolidin-3-yl]carbamoyl]phenyl]propyl]-5,6,7,8-tetrahydrothiazolo[5,4-b]quinoline-2-carboxamide] |
